From ChEMBL document CHEMBL6083234, “Discovery of novel 1,4-dicarbonylthiosemicarbazides as DNA gyrase inhibitors for the treatment of MRSA infection” (Eur J Med Chem, 2024)

Legend:
Staphylococcus aureus = assay: Antibacterial activity against Staphylococcus aureus ATCC 29213 assessed as inhibition of bacterial growth incubated for 18 to 24 hrs by broth microdilution method; type: functional; details: time 18-24 hrs
[1] = Cytotoxicity against human HepG2 cells assessed as reduction in cell viability incubated for 48 hrs by CCK8 assay; type: toxicity, cell-based
[2] = Selectivity index, ratio of CC50 for cytotoxicity against human HepG2 cells to MIC for antibacterial activity against Staphylococcus aureus ATCC 29213; type: toxicity, cell-based; details: read-out: Selectivity Index
DNA gyrase = DNA gyrase (Staphylococcus aureus, UniProt P0A0K8+P20831); assay: Inhibition of Staphylococcus aureus DNA gyrase ATP hydrolysis activity using pBR322 DNA as substrate incubated for 30 mins in presence of ATP by ADP-Glo reagent based assay; type: protein-complex assay
[3] = Selectivity index, ratio of CC50 for cytotoxicity against HUVEC cells to MIC for antibacterial activity against Staphylococcus aureus ATCC 29213; type: toxicity, cell-based; details: human, read-out: Selectivity Index
[4] = Cytotoxicity against HUVEC cells assessed as reduction in cell viability incubated for 48 hrs by CCK8 assay; type: toxicity, cell-based; details: human

Row | Compound | MIC (Staphylococcus aureus) | also measured
1 | CCCCCCOc1ccc(C(=O)N(C)NC(=S)NC(C)=O)cc1 | > 100 µg/mL | –
2 | CCCCCOc1ccc(C(=O)NNC(=S)NS(C)(=O)=O)cc1 | > 100 µg/mL | –
3 | CCCCCCOc1ccc(C(=O)NNC(=S)NCC)cc1 | > 100 µg/mL | –
4 | CCCCCOc1ccc(CCC(=O)NNC(=S)NC(C)=O)cc1 | > 100 µg/mL | –
5 | CCCCCOc1ccc(C(=O)NNC(=S)NC(C)=O)c(OCCCCC)c1 | > 100 µg/mL | –
6 | CCCCCOc1ccc(C(=O)NNC(=S)NC(=O)c2ccc(C(=O)OC)cc2)cc1 | > 100 µg/mL | –
7 | CCCCCCOc1ccc(-c2nnc(NC(C)=O)s2)cc1 | > 100 µg/mL | –
8 | CCCCCOc1ccc(CC(=O)NNC(=S)NC(C)=O)cc1 | 25 µg/mL | –
9 | CCCCCOc1ccc(C(=O)NNC(=S)NC(=O)Cc2ccccc2)cc1 | > 100 µg/mL | –
10 | CCCCCOc1ccc(C(=O)NNC(=S)NC(=O)c2ccc(C(=O)O)cc2)cc1 | > 100 µg/mL | –
11 | CCC(=O)NC(=S)NNC(=O)c1ccccc1O | 50 µg/mL | –
12 | CCCCCOc1ccc(C(=O)NNC(=S)NC(C)=O)cc1OCCCCC | 6.25 µg/mL | –
13 | CC(=O)O[C@H]1C(=O)[C@@]2(C)[C@H]([C@H](OC(=O)c3ccccc3)[C@]3(O)C[C@H](OC(=O)[C@H](O)[C@@H](NC(=O)c4ccccc4)c4ccccc4)C(C)=C1C3(C)C)[C@]1(OC(C)=O)CO[C@@H]1C[C@@H]2O [PACLITAXEL] | – | CC50 at 48 h [1]: 10 nM; CC50 at 48 h [4]: 16 nM
14 | CCCCCOc1ccc(C(=O)NNC(=S)NC(C)=O)nc1 | 25 µg/mL | –
15 | CCCCCOc1ccc(C(=O)NNC(=S)NC(=O)c2cccs2)cc1 | 3.12 µg/mL | –
16 | CCCCCCOc1ccc(C(=O)NNC(N)=S)cc1 | > 100 µg/mL | –
17 | CCCCCCOc1ccc(CNNC(=S)NCC)cc1 | > 100 µg/mL | –
18 | CCCCCCOc1ccc(-c2nnc(NC(C)=O)o2)cc1 | > 100 µg/mL | –
19 | CCCCCCOc1ccc(C(=O)NN(C)C(=S)NC(C)=O)cc1 | > 100 µg/mL | –
20 | CCCCCOc1ccc(C(=O)NNC(=S)NC(=O)CCC(=O)OC)cc1 | 12.5 µg/mL | –
21 | CCCCCOc1ccc(C(=O)NNC(=S)NC(=O)CCC(=O)O)cc1 | 50 µg/mL | –
22 | CCCCCCOc1ccc(C(=O)NNC(=O)NC(C)=O)cc1 | 100 µg/mL | –

Second part, led by results:

Row | MIC (Staphylococcus aureus) | Compound | also measured
23 | 1.56 µg/mL | CCCCCOc1ccc(C(=O)NNC(=S)NC(=O)CC)cc1 | –
24 | 25 µg/mL | CCCCCOc1ccc(C(=O)NNC(=S)NC(C)=O)cc1O | –
25 | 3.12 µg/mL | CC(=O)NC(=S)NNC(=O)c1ccc(OCCCC(C)C)cc1 | –
26 | 6.25 µg/mL | CCCOc1ccc(C(=O)NNC(=S)NC(C)=O)cc1 | –
27 | 12.5 µg/mL | CCCCCOc1ccc(C(=O)NNC(=S)NC(=O)CCC)cc1 | –
28 | 100 µg/mL | CCCCCCCCCCCOc1ccc(C(=O)NNC(=S)NC(C)=O)cc1 | –
29 | 3.12 µg/mL | CCCCCOc1ccc(C(=O)NC(=S)NNC(C)=O)cc1 | –
30 | 1.56 µg/mL | CC(=O)NC(=S)NNC(=O)c1ccc(OC2CCCCC2)cc1 | –
31 | 1.22 µM | CC(=O)NC(=S)NNC(=O)c1ccc(C2CCCCC2)cc1 | CC50 at 48 h [1]: 120 nM; selectivity ratio [2]: 0.1; IC50 (DNA gyrase): 1890 nM; selectivity ratio [3]: 0.65; CC50 at 48 h [4]: 790 nM
32 | 100 µg/mL | CC(=O)NC(=S)NNC(=O)c1ccc(O)c(O)c1 | –
33 | 1.56 µg/mL | CC(=O)NC(=S)NNC(=O)c1ccc(-c2ccccc2)cc1 | –
34 | > 100 µg/mL | COCCCOc1ccc(C(=O)NNC(=S)NC(C)=O)cc1 | –
35 | 1.56 µg/mL | CCCCCCOc1ccc(C(=O)NNC(=S)NC(C)=O)cc1 | IC50 (DNA gyrase): 1010 nM
36 | 50 µg/mL | CCCCCOc1ccc(C(=O)NNC(=S)NC(=O)C2CCCC2)cc1 | –
37 | 0.58 µM | CCC1CCC(c2ccc(C(=O)NNC(=S)NC(C)=O)cc2)CC1 (stereo not given) | CC50 at 48 h [1]: 26 nM; selectivity ratio [2]: 0.05; IC50 (DNA gyrase): 230 nM; selectivity ratio [3]: 0.12; CC50 at 48 h [4]: 67 nM
38 | 6.25 µg/mL | CC(=O)NC(=S)NNC(=O)c1ccc2ccccc2c1 | –

Row | MIC (Staphylococcus aureus) | Compound | also measured
39 | 12.5 µg/mL | CCCCCOc1ccc(C(=O)NNC(=S)NC(=O)C(C)C)cc1 | –
40 | > 100 µg/mL | CC(=O)NC(=S)NNC(=O)c1ccc([N+](=O)[O-])cc1 | –
41 | 12.5 µg/mL | Cc1ccc(C(=O)NNC(=S)NC(=O)CC(C)C)cc1 | –
42 | 1.56 µg/mL | CCCCOc1ccc(C(=O)NNC(=S)NC(C)=O)cc1 | –
43 | 50 µg/mL | CC(=O)NC(=S)NNC(=O)c1ccccc1 | –
44 | 3.12 µg/mL | CC(=O)NC(=S)NNC(=O)c1cccc(-c2ccccc2)c1 | –
45 | 100 µg/mL | CC(=O)NC(=S)NNC(=O)c1ccc(N2CCOCC2)cc1 | –
46 | 3.12 µg/mL | CC(=O)NC(=S)NNC(=O)c1ccc(C2CC2)cc1 | –
47 | 6.25 µg/mL | CCCCCOc1ccc(C(=O)NNC(=S)NC(=O)C2CC2)cc1 | –
48 | > 100 µg/mL | CCCCCOc1cccc(C(=O)NNC(=S)NC(C)=O)c1 | –
49 | 25 µg/mL | CCC(=O)NC(=S)NNC(=O)c1ccc(OC)cc1 | –
50 | 50 µg/mL | CCC(=O)NC(=S)NNC(=O)c1ccccc1 | –
51 | 3.12 µg/mL | CCCCCOc1ccc(C(=O)NNC(=S)NC(C)=O)c(C)c1 | –
52 | 3.12 µg/mL | CC(=O)NC(=S)NNC(=O)c1ccc(Oc2ccccc2)cc1 | –
53 | 50 µg/mL | CC(=O)NC(=S)NNC(=O)c1ccccc1O | –
